In patent US5023087A, “Efficient method for preparation of prolonged release liposome-based drug delivery system” (Liposome Technology, Inc., priority 1989, dated 1991):

What was measured:
[1] = Clearance of 125I-sCT from the intramuscular or subcutaneous site of injection; assay type: in vivo, Sprague-Dawley rats; conditions: free drug, FIG. 2/3
Procedure: The rate of clearance of sCT from a given liposome furmulation was determined by monitoring the clearance of ^125 I-sCT from the intramuscular site of injection. Salmon calcitonin was spiked with ^1251 -sCT and encapsulated in MLVs as described in Example I in such a way that after the removal of non-liposome associated drug, the injection sample contained about 10,000 cpm of ^125 I per injection.
Male Sprague-Dawley rats weighing 95 to 100 g were lightly anesthetized with ether, and 20 ul or 100 ul of the ^125 I-sCT liposome samples were injected either in the lower part of the forelimbs or the hindlimbs respectively. Sixteen to twenty rats were used in each experiment. […] At each time point, two rats were anesthetized for blood sampling (two ml blood were drawn and counted for ^125 I radioactivity). […] The limbs were inserted into tubes and then counted for remaining radioactivity in a gamma counter. The eight to ten time points shown in FIG. 2 were selected so that the half-life of clearance from the IM site could be determined by a semi-log plot of the radioactivity remaining versus time after injection as shown in FIG. 3. […]
The urine and feces from the two rats kept in metabolic cages throughout the experiment were collected and counted for radioactivity. […]

[2] = Plasma levels of immunoreactive sCT (radio-immunoassay) after IM injection; assay type: in vivo, rats; conditions: 1 ug
Procedure: Rats weighing 95 to 105 gm were injected intramuscularly in the forelimbs with sCT or sCT-MLVs. At each time point, four rats were bled by cardiac puncture and the blood collected in pre-chilled EDTA containing tubes. The plasma was collected after centrifugation at 4° C. and quickly frozen. The frozen samples were sent to Hazleton Laboratories for sCT radio-immunoassay (RIA). […] Thus, sCT-MLVs injected intramuscularly can achieve prolonged delivery to the systemic circulation.

[3] = Apparent first order absorption rate constant of gentamicin from urinary excretion after IM injection; conditions: lipid dose 0 umol/inj.
Procedure: The gentamicin concentration in the liposomes formulation was determined by the EMIT assay (Syva, Palo Alto, CA) after lysis in triton X-100.
Therefore, the apparent absorption rate constant, Ka, was estimated with the urinary excretion.
One group of four rats was immediately placed in metabolic cages (one rat per cage) and urine was collected at 24 hour intervals for the duration of the experiment. Cages were rinsed with distilled water after each collection and the volume of the pooled urine and rinses were recorded. An aliquot of each sample was frozen until assay.

clearance half-life from the site of IM injection [1]	plasma immunoreactive sCT in circulation [2]	Compound	Rate Const. Ka (apparent first order absorption rate constant) [3] [h⁻¹]
a few minutes	rapidly disappeared from circulation	CC(C)C[C@H](NC(=O)[C@H](CCCCN)NC(=O)CNC(=O)[C@H](CC(C)C)NC(=O)[C@@H](NC(=O)[C@@H]1CSSC[C@H](N)C(=O)N[C@@H](CO)C(=O)N[C@@H](CC(N)=O)C(=O)N[C@@H](CC(C)C)C(=O)N[C@@H](CO)C(=O)N[C@@H]([C@@H](C)O)C(=O)N1)C(C)C)C(=O)N[C@@H](CO)C(=O)N[C@@H](CCC(N)=O)C(=O)N[C@@H](CCC(=O)O)C(=O)N[C@@H](CC(C)C)C(=O)N[C@@H](Cc1c[nH]cn1)C(=O)N[C@@H](CCCCN)C(=O)N[C@@H](CC(C)C)C(=O)N[C@@H](CCC(N)=O)C(=O)N[C@H](C(=O)N[C@@H](Cc1ccc(O)cc1)C(=O)N1CCC[C@H]1C(=O)N[C@@H](CCCNC(=N)N)C(=O)N[C@H](C(=O)N[C@@H](CC(N)=O)C(=O)N[C@H](C(=O)NCC(=O)N[C@@H](CO)C(=O)NCC(=O)N[C@H](C(=O)N1CCC[C@H]1C(N)=O)[C@@H](C)O)[C@@H](C)O)[C@@H](C)O)[C@@H](C)O [F-sCT, Salmon calcitonin]	
		gentamicin [Gentamicin solution]	5.3
